What was measured:
[1] = overall (interspecies) PK model with allometric relationships; format: in vivo, hamster, rat, monkey; conditions: for θ3 Coefficient for Vc: Vc = θ3 × WT^θ4 (θ4 fixed 1); for θ7 Coefficient for Vp: Vp = θ7 × WT^θ8 (θ8 fixed 1)
From the text: (§1) The volume parameters (Vc, Vp) estimated from the PK models for three different species were correlated through simple allometric scaling (=Body weight-dependent allometry) in the PK model fitted to the overall data from all species. This method is based on the power–law function, which can be represented as follows:Y = a × BW^b,(2) where Y represents the PK parameter of interest from each animal; BW represents the average body weight of each species from the relevant in vivo studies; and a and b are the allometric coefficient and exponent of the equation, respectively.
(§2) For the allometric scaling of the clearance parameters (CL, Q) in the same model, physiological parameters such as brain weight (BrW) or maximum lifespan potential (MLP) of each species were incorporated if necessary. To address the uncertainty, two allometric relationships were selected as the final models, and two sets of human PK parameters were predicted: one from the allometry of best fit and the other from the most conventional simple allometry. The appropriateness of the extrapolated human PK parameter values was assessed by comparing them with those of the comparator. Since allometric scaling is not generally recommended for the absorption parameter, human absorption parameters were determined by the final estimates from the overall PK model instead of the allometric method.
The final allometric relationship used in the overall PK model is as follows:Parameter value in each species = a × BW^b (for volume parameters, Vc and Vp),(9) Parameter value in each species = a × BW^b/BrW (for clearance parameters, CL and Q),(10) where BrW and BW represent the average brain weight and body weight of each species, respectively, and a and b are the coefficient and exponent of the allometric relationship, respectively.
The GOF plots of the final PK model are shown in Figure 3 The final parameter estimates from the overall PK model, and the precision of parameter estimates assessed by the bootstrap method are shown in Table 5.

[2] = human PK parameter prediction by allometric scaling; conditions: 60 kg human
From the text: as §1, §2
As mentioned in Section 2.4, predicted human (with the body weight of 60 kg) PK parameter values were obtained using the simple and BrW-corrected (the best fit) allometric relationships and the final estimates for allometric coefficient and exponent in overall PK models.

[3] = preclinical in vitro and in vivo efficacy studies (off-target effects)
[4] = brain weight-corrected, estimate
[5] = brain weight-corrected allometry

θ5 Coefficient for Q ([1]; brain weight-corrected, Q = θ5 × WT^θ6/BrW, estimate): 0.846 | θ3 Coefficient for Vc [1, 4]: 0.0735 | θ7 Coefficient for Vp [1, 4]: 0.813 | α Scale parameter of WB [1, 4]: 4.51 | β Shape parameter of WB [1, 4]: 3.11 | θ6 Exponent of Q [1, 4]: 2.04 | ωCL Interindividual variability of CL [1, 4]: 25.9% | ωQ Interindividual variability of Q [1, 4]: 60.8% | ωα Interindividual variability of α [1, 4]: 27.0% | ωβ Interindividual variability of β [1, 4]: 24.0% | θ5 Coefficient for Q ([1]; simple allometry, Q = θ5 × WT^θ6, estimate): 0.0549 | θ3 Coefficient for Vc ([1]; simple allometry, estimate): 0.0755 | θ7 Coefficient for Vp ([1]; simple allometry, estimate): 0.829 | α Scale parameter of WB ([1]; simple allometry, estimate): 4.50 | β Shape parameter of WB ([1]; simple allometry, estimate): 3.01 | θ6 Exponent of Q ([1]; simple allometry, estimate): 0.670 | ωCL Interindividual variability of CL ([1]; simple allometry, estimate): 42.8% | ωQ Interindividual variability of Q ([1]; simple allometry, estimate): 23.9% | ωα Interindividual variability of α ([1]; simple allometry, estimate): 27.1% | ωβ Interindividual variability of β ([1]; simple allometry, estimate): 65.7% | CL, predicted human [2, 5]: 0.777 L/h | F 50, predicted human [2, 5]: 10.6 | F max, predicted human [2, 5]: 0.192 | Q, predicted human [2, 5]: 2.39 L/h | Vc, predicted human [2, 5]: 4.41 L | Vp, predicted human [2, 5]: 48.8 L | α, predicted human [2, 5]: 4.51 | β, predicted human [2, 5]: 3.11 | CL, predicted human ([2]; simple allometry): 0.264 L/h | F 50, predicted human ([2]; simple allometry): 10.6 | F max, predicted human ([2]; simple allometry): 0.192 | Q, predicted human ([2]; simple allometry): 1.17 L/h | Vc, predicted human ([2]; simple allometry): 3.29 L | Vp, predicted human ([2]; simple allometry): 49.7 L | α, predicted human ([2]; simple allometry): 4.51 | β, predicted human ([2]; simple allometry): 3.11 | off-target effects [3]: no off-target effects
Compound: COc1cc(F)c(C(C)C)cc1C1=C(CN2C(=O)O[C@H](c3cc(C(F)(F)F)cc(C(F)(F)F)c3)[C@@H]2C)CC(C)(C)CC1 [CKD519]
